Test results: patent US20240307415A1, “STEROID COMPOUND, AND PHARMACEUTICAL COMPOSITION THEREOF AND USE THEREOF” (JIANGSU SIMCERE PHARMACEUTICAL CO., LTD., priority 2021, published 2024)

System: K562-GRE reporter gene
Test: K562-GRE reporter gene activity
Format: cell-based
Settings: 24 h, read-out: K562-GRE Reporter EC50
Method: To generate the parental K562-GRE cell line, K562 cells were seeded at 5×10^5 cells/well onto a 6-well plate (brand: Costar, Cat. No: 3516) containing 2 mL of complete medium (RPM1640, 10% FBS, penicillin-streptomycin) and cultured at 37° C. with 5% CO2 for 24 h. The next day, 3 μg of pNL2.2[NLucP/MMTV/Hygro-NANO] (Promega) and 3 μL of PLUS reagent (brand: Invitrogen, Cat. No: 11514-015) were diluted in 150 μL of Opti-MEM (brand: Gibco, Cat. No: 11058021) and incubated at room temperature for 5 min. The pNL2.2[NLucP/MMTV/Hygro-NANO] vector contains MMTV LTR (mouse mammary tumor virus long terminal repeat), which drives transcription of the luciferase reporter gene NanoLuc in response to activation of several nuclear receptors (e.g. glucocorticoid receptor and androgen receptor). After incubation, the diluted DNA solution was mixed with Lipofectamine LTX solution (brand: Invitrogen, Cat. No: 15338-100) (6 μL of Lipofectamine LTX+144 μL of Opti-MEM) in a 1:1 ratio, pre-incubated, and incubated at room temperature for 15 min to form a DNA-Lipofectamine LTX complex. After incubation, 300 μL of the DNA-Lipofectamine complex was added directly to the cell wells. The K562 cells were transfected at 37° C. with 5% CO2 for 24 h. After transfection, the cells were washed with 3 mL of PBS and selectively grown for two weeks with complete growth medium containing 125 μg/mL hygromycin B (brand: Invitrogen, Cat. No: 10687010). “K562-GRE (pNL2.2[NLucP/MMTV/Hygro-NANO])” cells were generated.
After mixing, the cells were cultured in an incubator at 37° C. for 24 h. After 24 h of incubation, an equal volume of 100 μL of Nano-Glo luciferase assay system (brand: Promega, Cat. No: N1120) was added to the cells, the mixture was reacted in a shaker at […] for 10 min, and the chemiluminescence values were detected using the PHERAstar instrument. The antibody binding curves were plotted using the logarithmic value of the antibody concentration as the abscissa and the corresponding chemiluminescence reading as the ordinate, and the EC50 value was calculated by four-parameter fitting (GraphPad Prism9).

SMILES: C[C@]12C=CC(=O)C=C1CC[C@@H]1[C@@H]2[C@@H](O)C[C@@]2(C)[C@H]1C[C@H]1O[C@@H](c3ccc(Cc4cc(N)c5c(c4)CCO5)cc3)O[C@]12C(=O)CO [Compound 009, (6aR,6bS,7S,8aS,8bS,10R,11aR,12aS,12bS)-10-(4-((7-amino-2,3-dihydrobenzofuran-5-yl)methyl)phenyl)-7-hydroxy-8b-(2-hydroxyacetyl)-6a,8a-dimethyl-6a,6b,7,8,8a,8b,11a,12,12a,12b-decahydro-1H-naphtho[2′,1′:4,5]indeno[1,2-d][1,3]dioxolan-4(2H)-one]
- EC50: 5.76 nM
